Experimental findings from patent publication US20260317320A1, “C5AR1 ANTAGONISTS AND USES THEREOF” (Vanqua Bio, Inc., priority 2022, published 2026) are described below.

Read-outs that look alike come from different tables or passages of the source.

Experiment [1] has as its target T1, complement C5a receptor 1 (C5aR1) (Homo sapiens, UniProt P21730).
T1 construct: β-galactosidase fragment (PathHunter enzyme complementation); host or cells: CHO-K1 (PathHunter CHO-K1 C5aR1 β-arrestin cell line)
T1 sequence (P21730 1-350): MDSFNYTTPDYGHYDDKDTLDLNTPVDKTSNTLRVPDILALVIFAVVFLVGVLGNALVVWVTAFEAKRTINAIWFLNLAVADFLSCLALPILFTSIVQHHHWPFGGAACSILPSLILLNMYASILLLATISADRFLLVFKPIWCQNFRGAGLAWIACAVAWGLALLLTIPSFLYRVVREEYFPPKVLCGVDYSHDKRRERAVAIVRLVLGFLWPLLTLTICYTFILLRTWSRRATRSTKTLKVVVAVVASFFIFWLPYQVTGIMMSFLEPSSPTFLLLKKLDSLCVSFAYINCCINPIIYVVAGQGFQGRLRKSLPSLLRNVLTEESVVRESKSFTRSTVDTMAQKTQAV
As to the kind of experiment: β-arrestin recruitment via C5aR1 activation in live CHO-K1 cells (PathHunter), antagonist mode. The following applies: antagonist mode; recombinant hC5a (EC90) as competing natural agonist; live CHO-K1 cells; read-out: [Antagonist] B-arrestin2 recruitment: Average IC50. In kind it is cell-based. A digest of the protocol:
(§1)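 β-arrestin recruitment to C5aR1 in CHO-K1 cells is detected by enzyme-fragment complementation. Antagonism is measured against recombinant hC5a at its EC90; agonism is measured with compound alone. Potencies are grouped into IC50 categories.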

For experiment [2], the target named is T1, complement C5a receptor 1 (C5aR1). The experiment can be described thus: β-arrestin recruitment via C5aR1 activation in live CHO-K1 cells (PathHunter), agonist mode. In kind it is cell-based. Summed up:
as §1
For orientation: Activated receptors often draw arrestin, which recruitment assays turn into a signal.

In the case of `Cc1ccc2cc([C@H]3CC[C@H](c4c(C)cccc4F)CC3)c(=O)n(Cc3ccccc3C(F)(F)F)c2n1` [compound 225, 3-((1r,4r)-4-(2-Fluoro-6-methylphenyl)cyclohexyl)-7-methyl-1-(2-(trifluoromethyl)benzyl)-1,8-naphthyridin-2(1H)-one], the 50% inhibitory concentration (IC50) (as a rule, the concentration that gives 50% inhibition) in experiment [1] is less than 500 nM. Also, the “[Agonist] B-arrestin2 recruitment: Average EC50 (nM)” value (“[Agonist] B-arrestin2 recruitment” for short) in experiment [2] (at 10 μM) is recorded as “Non-Active at 10 μM”.
On the same counts, the results for `Cc1cccc(F)c1[C@H]1CC[C@H](c2cc3nc(CC(F)F)cnc3n(Cc3ncccc3C(F)(F)F)c2=O)CC1` [compound 226, 2-(2,2-Difluoroethyl)-7-((1r,4r)-4-(2-fluoro-6-methylphenyl)cyclohexyl)-5-((3-(trifluoromethyl)pyridin-2-yl)methyl)pyrido[2,3-b]pyrazin-6(5H)-one] are less than 500 nM and “Non-Active at 10 μM”.
On the same counts, the results for `CCCc1cnc2cc([C@H]3CC[C@H](c4c(C)cccc4F)CC3)c(=O)n(Cc3ncccc3C(F)(F)F)c2n1` [compound 227, 7-((1r,4r)-4-(2-Fluoro-6-methylphenyl)cyclohexyl)-3-propyl-5-((3-(trifluoromethyl)pyridin-2-yl)methyl)pyrido[2,3-b]pyrazin-6(5H)-one] are less than 500 nM and “Non-Active at 10 μM”.
Take `Cc1cccc(F)c1[C@H]1CC[C@H](c2cc3nc(CC(F)(F)F)cnc3n(Cc3ncccc3C(F)(F)F)c2=O)CC1` [compound 228, 7-((1r,4r)-4-(2-Fluoro-6-methylphenyl)cyclohexyl)-2-(2,2,2-trifluoroethyl)-5-((3-(trifluoromethyl)pyridin-2-yl)methyl)pyrido[2,3-b]pyrazin-6(5H)-one]: the IC50 in experiment [1] was less than 500 nM. Besides, the “[Agonist] B-arrestin2 recruitment” value in experiment [2] (at 10 μM) was “Non-Active at 10 μM”.
For `Cc1cccc(F)c1[C@H]1CC[C@H](c2cc3ncc(CC(F)(F)F)nc3n(Cc3ncccc3C(F)(F)F)c2=O)CC1` [compound 229, 7-((1r,4r)-4-(2-Fluoro-6-methylphenyl)cyclohexyl)-3-(2,2,2-trifluoroethyl)-5-((3-(trifluoromethyl)pyridin-2-yl)methyl)pyrido[2,3-b]pyrazin-6(5H)-one] the same measures were less than 500 nM and “Non-Active at 10 μM”.
With `COc1nccc(C)c1[C@H]1CC[C@H](c2cc3ncc(C)nc3n(Cc3ncccc3C(F)(F)F)c2=O)CC1` [compound 230, 7-((1r,4r)-4-(2-Methoxy-4-methylpyridin-3-yl)cyclohexyl)-3-methyl-5-((3-(trifluoromethyl)pyridine-2-yl)methyl)pyrido[2,3-b]pyrazin-6(5H)-one], the IC50 in experiment [1] was less than 500 nM. In experiment [2] (at 10 μM), the “[Agonist] B-arrestin2 recruitment” value is “Non-Active at 10 μM”.
In the case of `Cc1cccc(F)c1[C@H]1CC[C@H](c2cc3ncc(CC(F)F)nc3n(Cc3ncccc3C(F)(F)F)c2=O)CC1` [compound 231, 3-(2,2-Difluoroethyl)-7-((1r,4r)-4-(2-fluoro-6-methylphenyl)cyclohexyl)-5-((3-(trifluoromethyl)pyridin-2-yl)methyl)pyrido[2,3-b]pyrazin-6(5H)-one], the IC50 in experiment [1] is less than 500 nM. For the same compound, in experiment [2] (at 10 μM), the “[Agonist] B-arrestin2 recruitment” value was “Non-Active at 10 μM”.
As to `Cc1cnc2cc([C@H]3CC[C@H](c4c(C)cccc4F)CC3)c(=O)n(Cc3ncccc3CC(F)F)c2n1` [compound 232, 5-((3-(2,2-Difluoroethyl)pyridin-2-yl)methyl)-7-((1r,4r)-4-(2-fluoro-6-methylphenyl)cyclohexyl)-3-methylpyrido[2,3-b]pyrazin-6(5H)-one], the half-inhibitory concentration (IC50) in experiment [1] was less than 500 nM. The “[Agonist] B-arrestin2 recruitment” value in experiment [2] (at 10 μM) is reported as “Non-Active at 10 μM”.
As to `Cc1ccc2cc([C@H]3CC[C@H](c4c(C)cccc4F)CC3)c(=O)n(Cc3nccnc3OC(F)F)c2n1` [compound 233, 1-((3-(Difluoromethoxy)pyrazin-2-yl)methyl)-3-((1r,4r)-4-(2-fluoro-6-methylphenyl)cyclohexyl)-7-methyl-1,8-naphthyridin-2(1H)-one], the IC50 in experiment [1] is less than 500 nM. For the same compound, the “[Agonist] B-arrestin2 recruitment” value in experiment [2] (at 10 μM) is on record as “Non-Active at 10 μM”.
As to `COc1nccc(C)c1[C@H]1CC[C@H](c2cc3ccc(C)nc3n(Cc3ncccc3C(F)(F)F)c2=O)CC1` [compound 234, 3-((1r,4r)-4-(2-Methoxy-4-methylpyridin-3-yl)cyclohexyl)-7-methyl-1-((3-(trifluoromethyl)pyridin-2-yl)methyl)-1,8-naphthyridin-2(1H)-one], the half-maximal inhibitory concentration (IC50) in experiment [1] is less than 500 nM. Moreover, in experiment [2] (at 10 μM), the “[Agonist] B-arrestin2 recruitment” value is reported as “Non-Active at 10 μM”.
With `Cc1cnc2cc([C@H]3CC[C@H](c4c(F)cccc4F)CC3)c(=O)n(Cc3ncccc3C3CC3)c2n1` [compound 235, 5-((3-Cyclopropylpyridin-2-yl)methyl)-7-((1r,4r)-4-(2,6-difluorophenyl)cyclohexyl)-3-methylpyrido[2,3-b]pyrazin-6(5H)-one], the IC50 in experiment [1] is less than 500 nM. Moreover, in experiment [2] (at 10 μM), the “[Agonist] B-arrestin2 recruitment” value was “Non-Active at 10 μM”.
Turning to `Cc1cnc2cc([C@H]3CC[C@H](c4c(F)cccc4F)CC3)c(=O)n(Cc3ncccc3CC(F)(F)F)c2n1` [compound 236, 7-((1r,4r)-4-(2,6-Difluorophenyl)cyclohexyl)-3-methyl-5-((3-(2,2,2-trifluoroethyl)pyridin-2-yl)methyl)pyrido[2,3-b]pyrazin-6(5H)-one], the IC50 in experiment [1] was less than 500 nM. Also, the “[Agonist] B-arrestin2 recruitment” value in experiment [2] (at 10 μM) was “Non-Active at 10 μM”.
As to `Cc1cnc2cc([C@H]3CC[C@H](c4c(C)cncc4F)CC3)c(=O)n(Cc3ncccc3C(F)(F)F)c2n1` [compound 237, 7-((1r,4r)-4-(3-Fluoro-5-methylpyridin-4-yl)cyclohexyl)-3-methyl-5-((3-(trifluoromethyl)pyridin-2-yl)methyl)pyrido[2,3-b]pyrazin-6(5H)-one], the half-maximal inhibitory concentration (IC50) in experiment [1] was less than 500 nM. Besides, the “[Agonist] B-arrestin2 recruitment” value in experiment [2] is recorded as “Non-Active”.
`Cc1cnc2cc([C@H]3CC[C@H](c4c(C)cccc4F)CC3)c(=O)n(Cc3ncccc3OC3CC3)c2n1` [compound 238, 5-((3-Cyclopropoxypyridin-2-yl)methyl)-7-((1r,4r)-4-(2-fluoro-6-methylphenyl)cyclohexyl)-3-methylpyrido[2,3-b]pyrazin-6(5H)-one]: the half-maximal inhibitory concentration (IC50) in experiment [1] was less than 500 nM. Besides, the “[Agonist] B-arrestin2 recruitment” value in experiment [2] is “Non-Active”.
On to `Cc1ccc2cc([C@H]3CC[C@H](c4c(C)cccc4F)CC3)c(=O)n(Cc3ncccc3CC(F)(F)F)c2n1` [compound 239, 3-((1r,4r)-4-(2-fluoro-6-methylphenyl)cyclohexyl)-7-methyl-1-((3-(2,2,2-trifluoroethyl)pyridin-2-yl)methyl)-1,8-naphthyridin-2(1H)-one], for which the IC50 in experiment [1] is less than 500 nM. The “[Agonist] B-arrestin2 recruitment” value in experiment [2] is on record as “Non-Active”.
For `Cc1cccc(F)c1[C@H]1CC[C@H](c2cc3ncc(C(F)F)nc3n(Cc3ncccc3C(F)(F)F)c2=O)CC1` [compound 240, 3-(Difluoromethyl)-7-((1r,4r)-4-(2-fluoro-6-methylphenyl)cyclohexyl)-5-((3-(trifluoromethyl)pyridin-2-yl)methyl)pyrido[2,3-b]pyrazin-6(5H)-one], the IC50 in experiment [1] was less than 500 nM. Moreover, in experiment [2], the “[Agonist] B-arrestin2 recruitment” value is given as “Non-Active”.
Take `Cc1ccc2cc([C@H]3CC[C@H](c4c(C)cccc4F)CC3)c(=O)n(Cc3ncccc3C3CC3)c2n1` [compound 241, 1-((3-Cyclopropylpyridin-2-yl)methyl)-3-((1r,4r)-4-(2-fluoro-6-methylphenyl)cyclohexyl)-7-methyl-1,8-naphthyridin-2(1H)-one]: in experiment [1], the concentration for half-maximal inhibition (IC50) was less than 500 nM. Further, the “[Agonist] B-arrestin2 recruitment” value in experiment [2] is recorded as “Non-Active”.
`Cc1cnc2cc([C@H]3CC[C@H](c4cnsc4C)CC3)c(=O)n(Cc3nccnc3C(F)(F)F)c2n1` [compound 242, 3-Methyl-7-((1r,4r)-4-(5-methylisothiazol-4-yl)cyclohexyl)-5-((3-(trifluoromethyl)pyrazin-2-yl)methyl)pyrido[2,3-b]pyrazin-6(5H)-one]: in experiment [1], the IC50 is less than 500 nM. Also, the “[Agonist] B-arrestin2 recruitment” value in experiment [2] is listed as “Non-Active”.
`Cc1ccc2cc([C@H]3CC[C@H](c4ccccc4C(F)(F)F)CC3)c(=O)n(Cc3ncccc3OC(F)(F)F)c2n1` [compound 244, 7-Methyl-1-((3-(trifluoromethoxy)pyridin-2-yl)methyl)-3-((1r,4r)-4-(2-(trifluoromethyl)phenyl)cyclohexyl)-1,8-naphthyridin-2(1H)-one]: the half-inhibitory concentration (IC50) in experiment [1] is less than 500 nM. The “[Agonist] B-arrestin2 recruitment” value in experiment [2] is “Non-Active”.
As to `Cc1ccc2cc([C@H]3CC[C@H](c4c(F)cccc4F)CC3)c(=O)n(Cc3ncccc3C3CC3)c2n1` [compound 245, 1-((3-Cyclopropylpyridin-2-yl)methyl)-3-((1r,4r)-4-(2,6-difluorophenyl)cyclohexyl)-7-methyl-1,8-naphthyridin-2(1H)-one], the IC50 in experiment [1] was less than 500 nM. The “[Agonist] B-arrestin2 recruitment” value in experiment [2] (at 10 μM) is on record as “Non-Active at 10 μM”.
Consider `Cc1ccc2cc([C@H]3CC[C@H](c4c(F)cccc4F)CC3)c(=O)n(Cc3ncccc3OC(F)(F)F)c2n1` [compound 246, 3-((1r,4r)-4-(2,6-Difluorophenyl)cyclohexyl)-7-methyl-1-((3-(trifluoromethoxy)pyridin-2-yl)methyl)-1,8-naphthyridin-2(1H)-one], for which the half-maximal inhibitory concentration (IC50) in experiment [1] was less than 500 nM. Further, the “[Agonist] B-arrestin2 recruitment” value in experiment [2] (at 10 μM) is recorded as “Non-Active at 10 μM”.
